Reference: patent US20130309337A1, “PROCESS FOR THE PREPARATION OF PLANT EXTRACTS FOR TREATING SKIN DISORDERS AND ENHANCING HEALING OF WOUNDS” (DEVELOPMENT CENTER FOR BIOTECHNOLOGY, priority 2007, published 2013)

Tested on: STZ-induced diabetic rats
Experiment: Wound closure in STZ-induced diabetic rats (full-thickness dorsal excision wounds, topical application twice a day)
Type: in vivo, rat
Conditions: Example 6, Table 1
Description: Rats with a body weight of over 300 g were administered with Streptozotocin (STZ, 65 mg/kg, i.p.) to induce high blood sugar.
• i. The high-blood-sugar animals with a body weight of lower than 300 g were eliminated and the rest were randomized into 6 groups. • ii. The animals were anesthetized with pentobarbital and the hair on the surgical area (dorsal area) was removed. The surgical areas and instruments were then sterilized with 75% alcohol before operation. • iii. The skins on the dorsal medium areas (4, 6 and 8 cm from the midpoint of two scapula) were excised (full thickness) using a round cutting blade with a diameter of 1 cm. Measuring the Wounds, Applying Testing Materials, and Preventing the Wounds from Being Scratched • i. A standard ruler was placed beside the wounds and pictures were taken. • ii. A thin layer of the test materials formulated as ointments and 0.05 ml of CGS21680 solution were applied to each wound. • iii. The wounds were covered with gauze and hoods were worn on the rats' necks.
Test materials were applied to the rats twice a day (morning and evening) and the wounds were measured at each time point.
A standard ruler was placed beside the wounds when pictures were taken. The length of the wounds was standardized according to the scale of the standard ruler in the pictures before the wounds were analyzed with the image processing software Image-Pro (Media Cybernetics, Inc.) to avoid the errors caused by different picturing distances.
The areas of the three wounds on the rats' backs were analyzed by Image-Pro. The wound areas of day zero were the original wound areas. The original wound areas minus the wound areas at different time points were divided by the original wound areas to get the wound closure percentages. The mean of the three wound closure percentages of each rat represents the wound closure of each rat. Four to seven rats per group were used for each test materials. The data was shown as mean±standard error (SEM). The p-values of the test results were calculated by t-test in statistics software sigma statis (Systat software Inc.). P<0.05 means there is a significant difference, and it is marked with * on the statistics charts or tables. P<0.01 means there is a very significant difference, and it is marked with ** on the statistics charts or tables. P<0.001 means there is an extremely significant difference, and it is marked with *** on the statistics charts or tables.
The purpose of this example is to compare the efficacy of the composition of the present invention and that of the commercially available products on wound closures. The wound closure animal experiments were conducted according to Example 5. On day 0, 4, 6, 8, 10 and 12 after the treatments of placebo (Group 1), 1% S1 ointment (Group 2), CGS-21680 (Group 3), Regranex (Group 4), DCB-WH1-C (Group 5) and DCB-WH1-W (Group 6), the wound areas of all experimental groups were measured and the wound closure percentages and CT50 (time required for 50% wound closure) values were calculated.
The purpose of this example is to compare the efficacy of DCB-WH1-W with that of its active ingredients in wound closures. The test materials are placebo (Group 1), 1% S1 ointment (Group 2), 0.25% PA-W4 ointment (Group 3), DCB-WH1-W (Group 4) and 1% PA-W4 ointment (Group 5). The wound closure animal experiments were conducted according to Example 5. On day 0, 4, 9, 11 and 13 after the treatment with the test materials, the wound areas of all experimental groups were measured and the wound closure percentages and CT50 were calculated.

CCNC(=O)[C@H]1O[C@@H](n2cnc3c(N)nc(NCCc4ccc(CCC(=O)O)cc4)nc32)[C@H](O)[C@@H]1O [CGS-2168, CGS-21680]
CT50 (time required for 50% wound closure): 10.3 days
Wound closure percentage (%) Day 4 (day 4 after treatment, mean ± SEM, topical twice a day): −21.3 ± 4.8%
Wound closure percentage (%) Day 6 (day 6, mean ± SEM): −27.38 ± 3.2%
Wound closure percentage (%) Day 8 (day 8, mean ± SEM): −2.4 ± 4.1%
Wound closure percentage (%) Day 10 (day 10, mean ± SEM): 46.7 ± 6.0%
Wound closure percentage (%) DAY 12 (day 12, mean ± SEM): 71.7 ± 2.4%
